# Test results published in patent publication US7897722B2, “Composition of bone formation with PHSRN-RGD containing oligopeptide” (Seoul National University Industry Foundation, priority 2007, dated 2011).
# Columns and labels:
# [1] = tested on: MG63 cells; assay: Cell adhesion assay on coated culture plates; type: cell-based, human; settings: plates coated with 0.1 μM recombinant oligopeptide; control poly-L-lysine-coated plate; P<0.05
# Experimental: (§1) MG63 cells (Korean Cell Line Bank, KCLB), used in the present invention, which is a human osteosarcoma cell line, were cultured in Dulbecco's modified Eagle's medium (DMEM) containing 10% (v/v) fetal bovine serum and 0.1% (w/v) gentamycin at 37° C., in a humidified 5% CO2 incubator.
# 24-well plates were coated with 0.1 μM recombinant oligopeptide or poly-L-lysine at a predetermined concentration overnight at 4° C. and blocked with PBS containing 1% (w/v) BSA for 30 min, then rinsed with PBS.
# The MG63 cells were serum-starved for 24 hours, harvested in 0.02% (w/v) trypsin, 1 mM EDTA, and resuspended in DMEM. After being washed 3 times with DMEM containing 100 μg/Ml soybean trypsin inhibitor and 1% (w/v) BSA, 5×10^4 MG63 cells in DMEM were plated in each well to culture at 37° C. for 30 min or 1 hour. Suspensions of control cells were maintained in BSA-coated plates at a given time. After 30 min, adherent cells were washed twice with PBS, fixed with 3% (w/v) paraformaldehyde, and stained with 0.25% (w/v) Crystal Violet (Sigma, USA) in 2% (v/v) ethanol/water. After washing with distilled water, the plates were allowed to dry. The absorbancy was measured at 570 nm to represent the mean±SD (standard deviation). Non-specific adhesion was determined using 1% BSA as a negative control group. […]
# [2] = tested on: MG63 cells; assay: ALP (alkaline phosphatase) assay, osteoblastic cell differentiation; type: cell-based, human; settings: 7 days, control poly-L-lysine-coated
# Experimental: as §1
# In order to determine osteoblastic cell differentiation, ALP (Alkaline phosphatase) activity that implies in vitro bone formation activity, was measured. 5×10^4 MG63 cells were cultured in 0.1 μM recombinant oligopeptide-coated or poly-L-lysine-coated six-well plates for 7 days. Then, they were washed with PBS and lysed in 1.5 M Tris/HCl (pH 10.2) containing 1 mM ZnCl2, 1 mM MgCl2 and 1% (w/v) Triton X-100 at 4° C. for 10 min. After clarifying the cell lysates by centrifugation, the ALP activity was assayed according to the manufacturer's protocol for the ALP assay kit (Sigma, USA).
substance,measurement,setting,value
DPHSRN-SITGTNLTPGYTITVYAVTG-RGD (DPHSRNSITGTNLTPGYTITVYAVTGRGD) [F20],cell adhesion capacity (absorbance at 570 nm) compared with control plates,[1],2 fold
same,ALP activity of MG63 cells compared with control plates,[2]; 0.1 μM oligopeptide-coated plates,2.5 fold
same,ALP activity of MG63 cells compared with control plates,"[2]; 0.1 μM oligopeptide-coated six-well plates, n=3, P<0.05",2.5 times
